Measurements reported in US8748598B2, “Analogs of 3-O-acetyl-11-keto-beta-boswellic acid” (Laila Nutraceuticals, priority 2004, dated 2014).
≈ marks a conversion by molar mass, not a printed value. Where “and” joins values, the source holds several entries; their conditions need not be identical. Equal entries are not always repeated. Entries after “also recorded” stand apart in the source; their conditions may differ. Where two headings read alike, the source gives them in different places. One block for each compound: values may come before it.

What was measured:
MDA-MB-231 [1] = test: MDA-MB-231 clone (colony) formation in vitro; assay type: cell-based, human; settings: 8 days
Description: Inhibitory efficacy in clone formation of LI-51255 was tested by following the procedure described earlier with some modifications (Wu et al. 2005). Briefly, MDA-MB-231 cells were harvested and seeded into 6-well plates (100 cells/ml). The cells were allowed to grow for 4 days and thereafter, the cells were incubated with DMEM containing either 0.5% DMSO or 25 μg/ml AKBA or different concentrations (1.0, 1.5, 2.0, 2.5 μg/ml) of LI-51255 for further 8 days. Fresh medium containing test agents was replaced at every 24 h. Finally, the wells were washed three times with PBS and fixed in methanol for 15 min. The cells were stained with Giemsa stain and observed under microscope. The image of the stained wells were captured digitally (Kodak Image Station 4000MM, Carestream Health Inc., New Haven, Conn.) and number of colonies were counted and analyzed by using NIH Image J software.

[2] = test system: B16 F0 melanoma xenograft; test: B16 F0 melanoma xenograft model; assay type: in vivo, C57B6J mice; settings: twelve days; for % reduction of tumor burden (w.r.t control): listed as LI-51255
Description: In vivo efficacy of LI-51255 against melanoma growth was evaluated in B16 F0 melanoma xenograft model of C57B6J mice. C57B6J mice of 6 weeks age (body weight 18-22 g) were purchased from National Institute of Nutrition (NIN), Hyderabad (India). Animals study protocols were approved by Institutional Ethics Committee (IAEC). All the studies were performed in compliance with the Committee for the Purpose of Control and Supervision of Experiments on Animals (CPCSEA) guidelines and OECD guidelines. Animals were allowed free access to standard feed and provided charcoal filtered and UV exposed water ad libitum. The animals were maintained at a controlled temperature (24-26° C.), humidity (45-70%), and 12 h/12 h of light/dark cycle.
To induce the melanoma tumor formation, sub-confluent B16F0 cells were harvested by brief trypsinization and 1×10^6 cells were injected subcutaneously in 0.2 mL phosphate-buffered saline. Drug treatment was started after development of palpable tumors (3-5 days after implantation of the cells). Drugs were prepared in phosphate-buffered saline (10% DMSO, v/v) and either 75 mg/kg of DTIC or different doses of LI-51255 (10 or 20 mg/kg) was administered daily through intra-peritoneal route. Vehicle treated control animals received only 10% DMSO in phosphate buffered saline. After twelve days of treatment, the animals were sacrificed by CO2 inhalation and tumors were excised and weighed.

[3] = test system: Human umbilical vein endothelial cells (HUVEC); test: In vitro capillary-like tube formation assay; assay type: cell-based; settings: HUVEC on Cultrex, 1, 2.5 and 5 μg/ml, 16 h; listed as LI-51255
Description: In vitro capillary formation assay was performed with Human umbilical vein endothelial cells (HUVEC), cultured on 10 mg/ml basement membrane extract (BME—Cultrex®, R&D Systems, USA) bed. The protocol of in vitro endothelial tube formation assay was the same as described earlier with some modifications (Reference). Briefly, four hundred microliters of Cultrex was coated at 4° C. in each well of 24-well culture plate and allowed to gel at 37° C. for 1 h. HUVECs were plated at a density of 7.5×10^4 cells per well with 400 μl of DMEM supplemented with 10% fetal bovine serum and 4.5 g/l D-glucose. The cells were then treated with either 0.5% DMSO or different concentrations of LI-51255 for 16 hours. Pictures were taken under a Nikon Eclipse TS 100 microscope equipped with a Nikon Coolpix camera (FIG. 1B).

[4] = test system: B16 murine melanoma cells; test: Cell cycle analysis by flow cytometry; assay type: cell-based; settings: 24 h
Description: For flow cytometry, cells were harvested after the treatment period, washed with phosphate buffered saline (PBS), and adjusted the cell count at 2×10^6 cells per milliliter. The cells were fixed in 70% ethanol for 30 min at 4° C. Cells were then washed two times with PBS and stained with 0.5 μg/ml propidium iodide at 37° C. for 30 min and analyzed by flow cytometry. Data were acquired on a FACS Scan flow cytometer (Becton Dickinson) and analyzed by using the Cellquest software.

MCF-7 = test: MTT cell proliferation assay, MCF-7; assay type: cell-based, human; settings: Table 4
Description: (§1) MTT [3-(4,5-dimethylthiazol-2-yl)-2,5-diphenyltetrazolium bromide] incorporation based cell proliferation assay was performed as described previously (Reference). The cytotoxic efficacy of some analogs was evaluated in different cell lines by MTT cell proliferation assay kit (Roche Applied Sciences, Germany). The assay was carried out according to the instruction provided by the vendor. Briefly, in brief, equal numbers of cells was plated in 96-well flat-bottomed plates in 100 μl of medium and were exposed to different analogs selected from 1 to 63 at various concentrations up to 10 μg/ml for a period of three days. Vehicle control culture wells received only a maximum of 0.5% DMSO. Thereafter, 0.5 mg/ml of MTT reagent was added to each well and the microplate was incubated further for 4 h at 37° C. in presence of 5% CO2. Finally, the cells were solubilized by adding solubilizing solution and allowed to incubate at 37° C. overnight. After complete solubilization of the formazan crystals the absorbance was read at 540 nm in a microplate reader (BioRad, USA). The results (mean OD±SD) obtained from quadruplicate wells were used in calculation to determine the inhibition of cell proliferation (50% of inhibitory concentration, IC50) of the test compounds.
(§2) The cytotoxic properties of some analogs were evaluated by MTT incorporation assay. The methodology of the assay procedure was the same as mentioned in example 41.

MDA-MB-231 [5] = test: MTT cell proliferation assay, MDA-MB-231; assay type: cell-based, human; settings: Table 4
Description: as §1, §2

AKT pathway = AKT pathway western immunoblot in MDA-MB-231 cells; assay type: cell-based, human; settings: MDA-MB-231, 10 μg/ml, 0-240 min
Description: Equal number of MDA-MB-231 human breast tumor cells (ER-) was plated in 25 cm^2 cell culture flasks. The cells treated with either 0.5% DMSO as vehicle or 10 μg/ml of LI-51255 for 0, 5, 10, 20, 30, 60, 120 and 240 min. The cells were lysed in cell lysis buffer.

VEGF = settings: HUVEC, 24 h, immunoblot; listed as LI51255
Description: Equal number of HUVEC human primary endothelial cells was plated in 35 mm culture dishes. The cells exposed to either 0.5% DMSO as vehicle or LI-51255 for 24 h. The cells were lysed in cell lysis buffer. The protein concentration of each lysate was determined by the BCA method (BioRad, Hercules, Calif.). Equal amount of cell lysates proteins was resolved in SDS-PAGE and the transferred proteins on nitrocellulose membrane were reacted with human anti-VEGF antibody (Cell Signaling Technology, Beverly, Mass.) overnight at 4° C. Immunoreactive proteins were detected using were developed with Super SignalWest Pico Chemiluminescent substrate (Pierce Biotechnology Inc.) and the band intensities were analyzed using Molecular Imaging Software, version 4.0 (Eastman Kodak Company, Rochester, N.Y.). Relative density was determined by normalization of the density of each blot with that of corresponding β-actin.

[6] = test system: Freund's Adjuvant-induced arthritis in Wistar Albino rats; test: Freund's adjuvant-induced arthritis, paw edema; assay type: in vivo; settings: 10 mg/kg daily oral for 30 days; edema 13 days after Freund's Adjuvant
Description: The Wistar Albino rats were divided into four groups with […] each group. The two treatment groups, each containing 6 animals, were orally supplemented with one of the two analogs namely glycinate of AKBA (10) or piperazine amide of AKBA (23) in 1% carbomethylcellulose (CMC) at a daily dose of 10 mg/kg for 30 days. The control group of animals received same volume of 1% CMC orally and a positive control group received 10 mg/kg daily dose of prednisolone for direct comparison. Following the 30 day treatment and one hour after the last dose all the animals were challenged with 0.1 mL of 1% solution of Freund's Adjuvant through a subcutaneous injection in the sub-plantar region of left hind paw. The paw volume was measured using a plethymograph. The difference between the paw volumes measured before and 13 days after the Freund's Adjuvant injection was taken as edema volume. The percentage inhibition was calculated by comparing the mean edema of the control group and treatment groups.

Jurkat = assay type: cell-based, human; design: minimum inhibitory concentration (MIC) Jurkat: unit not given here; settings: MTT assay
Description: as §1, §2

PC3M = test: Cytotoxicity MTT assay, PC3M; assay type: cell-based, human; design: minimum inhibitory concentration (MIC) PC3M: unit not given here; settings: for minimum inhibitory concentration (MIC) PC3M: MTT assay
HePG2 = test: Cytotoxicity MTT assay, HePG2; assay type: cell-based, human; design: unit not given here
Description: as §1, §2

Brine shrimp = Brine shrimp lethality; assay type: in vivo; settings: for IC50: read-out: Brine shrimp lethality IC50
Description: The Brine shrimp lethality was evaluated for the analogs 1 to 28 and compared the activities with those of AKBA and a standard compound podophyllotoxin. The data was summarized already disclosed in our earlier application Ser. No. 10/540,257 which is granted under U.S. Pat. No. 7,625,947 which is incorporated herein by reference. The magnitude of Brine shrimp lethality obtained for the analogs has significant correlation with 5-LOX inhibitory activity.

[7] = 10 mg/kg daily intra-peritoneal
[8] = 20 mg/kg daily intra-peritoneal

Compound: 3-O-acetyl-11-keto-β-boswellic acid [AKBA, reference compound]
MDA-MB-231 colony formation (MDA-MB-231 [1]; 25 μg/ml): inhibition of MDA-MB-231 colony formation

IC50 values MCF-7 (MCF-7): 12.98 µg/mL (≈ 23.4 µM)
IC50 values MDA-MB-231 (MDA-MB-231 [5]): 3.45 µg/mL (≈ 6.22 µM)
Compound: CC(=O)OC1CC[C@@]2(C)C(CC[C@]3(C)C2C(=O)C=C2C4[C@@H](C)[C@H](C)CC[C@]4(C)CC[C@]23C)[C@@]1(C)C(=O)NCCN (stereo partly drawn) [Analog 21, N-(3-O-Acetyl-11-keto-[beta]-boswelloyl)-ethylenediamine]
Average weight of tumor [2, 7]: 4.575 gm
% reduction of tumor burden (w.r.t control) [2, 7]: 27.25% and 27.253%
Average weight of tumor [2, 8]: 3.050 gm
% reduction of tumor burden (w.r.t control) [2, 8]: 51.5% and 51.502%
capillary-like tube formation [3]: dose-dependent inhibition; also recorded: inhibits capillary-like tube formation
cell cycle progression [4]: arrests the growth of B16 murine melanoma cells at the subG1 phase
G1 ([4]; LI-51255 5 (mg/ml)): 74.74
G2/M ([4]; LI-51255 5 (mg/ml)): 12.2
S ([4]; LI-51255 5 (mg/ml)): 11.18
Sub G1 ([4]; LI-51255 5 (mg/ml)): 1.7
G1 ([4]; LI-51255 10 (mg/ml)): 60.25
G2/M ([4]; LI-51255 10 (mg/ml)): 9.19
S ([4]; LI-51255 10 (mg/ml)): 10.87
Sub G1 ([4]; LI-51255 10 (mg/ml)): 19.76
MDA-MB-231 colony formation (MDA-MB-231 [1]; 1.0, 1.5, 2.0, 2.5 μg/ml, listed as LI-51255): potentially inhibits the growth and development; also recorded: inhibition of MDA-MB-231 colony formation
AKT protein expression (AKT pathway): remains the same
phospho-raf (ser 259) expression (AKT pathway): up-regulation
phosphorylated AKT (ser 473) protein expression (AKT pathway; listed as LI-51255): deactivates AKT pathway; also recorded: time dependent down regulation
VEGF protein expression (VEGF): strongly inhibited

Compound: CC(=O)OC1CCC2(C)C(CCC3(C)C2C(=O)C=C2C4C(C)C(C)CCC4(C)CCC23C)C1(C)C(=O)N1CCNCC1 (centres unmarked) [Analog 23]
inhibition of paw edema [6]: 16.4% and 16.3%
minimum inhibitory concentration (MIC) Jurkat (Jurkat): 50
cytotoxicity against PC3M (PC3M): significantly more potent
minimum inhibitory concentration (MIC) PC3M (PC3M): 10
IC50 values MCF-7 (MCF-7): IC50 at 9.03 μg/ml
minimum inhibitory concentration (MIC) HePG2 (HePG2): 40
IC50 values MDA-MB-231 (MDA-MB-231 [5]): IC50 at 5.53 μg/ml
IC50 (Brine shrimp; in vivo): 880 nM

Compound: CC(=O)O[C@@H]1CC[C@@]2(C)C(CC[C@]3(C)C2C(=O)C=C2C4[C@@H](C)[C@H](C)CC[C@]4(C)CC[C@]23C)[C@@]1(C)N (some centres unmarked) [Analog 25]
minimum inhibitory concentration (MIC) Jurkat (Jurkat): 50
cytotoxicity against PC3M (PC3M): significantly more potent
minimum inhibitory concentration (MIC) PC3M (PC3M): 30
IC50 (MCF-7; Homo sapiens, MCF7): 14 µg/mL (≈ 28.9 µM)
minimum inhibitory concentration (MIC) HePG2 (HePG2): 50
IC50 (MDA-MB-231 [5]; Homo sapiens, MDA-MB-231): 13.2 µg/mL (≈ 27.3 µM)
inhibitory capabilities against brine shrimp (Brine shrimp; in vivo): potent inhibitory capabilities

Compound: COc1cc([C@@H]2c3cc4c(cc3[C@H](O)[C@H]3COC(=O)[C@H]23)OCO4)cc(OC)c1OC [podophyllotoxin, reference compound]
IC50 (Brine shrimp): 3000 nM
